# Laboratory results published in patent US8153103B2, “Conjugates of photo-activatable dyes” (Board of Regents, The University of Texas System, priority 2008, dated 2012).
# Test system: gap junction channels
# Assay: Cell-cell dye transfer after local uncaging in C. elegans embryos (control experiments)
# Assay type: in vivo
# Conditions: α-GA 25 μM, 4-cell embryo, eggshell thinned with bleach and chitinase, ABp uncaged
# Source text: To study the pattern of cell-cell coupling during early development, embryos were collected from injected worms and subjected to differential interference contrast (“DIC”) imaging. Three to four hours after injection, early embryos were collected from injected worms by cutting the worms near the uterus. Labeled embryos were transferred onto a 2% agar pad, covered with a coverslip, and mounted on an inverted fluorescence microscope (Axiovert 200M, Carl Zeiss, Peabody, Mass.). During uncaging and imaging, motorized filter wheels (Ludl Electronics Products, Hawthorne, N.Y.) were employed to select excitation and emission wavelengths by passing light from a Xeon lamp (75 W) through bandpass filters (Chroma Technology, Rockingham, Vt.). A neutral density filter was also added to the light path to reduce the excitation light intensity by about 70%. The typical UV uncaging duration is about 2 seconds. Bandpass filters were chosen for UV uncaging (360±20 nm), coumarin imaging (excitation 425±5 nm, emission 460±15 nm), GFP imaging (excitation 488±7.5 nm, emission 530±20 nm), and rhodamine imaging (excitation 560±20 nm, emission 615±30 nm). A customized multiple path dichroic mirror was used for the UV uncaging and 3-color imaging. Epifluorescence was collected with a cooled CCD camera (ORCA-ER, Hamamatsu, Bridgewater, N.J.) under the control of OpenLab software (Improvision, Waltham, Mass.). […]
smiles,measurement,value
"CC1(C)[C@@H](O)CC[C@]2(C)[C@H]3C(=O)C=C4[C@H]5C[C@@](C)(C(=O)O)CC[C@]5(C)CC[C@@]4(C)[C@]3(C)CC[C@@H]12 [α-GA, 18α-glycyrrhetinic acid]",cell-cell dye transfer after uncaging dextran-CANPE-HCC in presence of blocker,dye transfer was not observed
